Measured values reported in patent US20010034454A1, “Description anti-mitotic agents which inhibit tubulin polymerization” (BYLOR UNIVERSITY AND ARIZONA DESEASE CONTROL RESEARCH …, priority 1998, published 2001).
Converted amounts (≈) assume the structure as drawn. Like-named read-outs stand apart in the source and are kept apart here.

Experiments:
tubulin [1] = assay: Inhibition of binding of [3H]colchicine to tubulin; conditions: comparator, concentration not given
From the text: A measurement of each compound's tubulin affinity may also be determined through the compound's ability to inhibit colchichine-tubulin binding. A suitable assay is that described by Kang et al., involving the use of commercially available tritiated colchicine. Decreases in the amount of [^3H]colchicine-tubulin interaction due to the competitive binding of one of the novel inhibitors of this invention may be measured by autoradiography or scintillation counting.

tubulin [2] = test system: T1, tubulin; assay: Tubulin polymerization assay; type: biochemical, bovine
T1 construct: Purified tubulin is obtained from bovine brain cells as described in Hamel and Lin
Experimental: The ability of the various above described compounds to inhibit tubulin polymerization can be determined by in vitro assay. A suitable assay system is that described by Bai et al. A method for purifying tubulin from bovine brain cells is described by Hamel and Lin.
IC50 values for tubulin polymerization were determined according to the procedure described in Bai et al. Purified tubulin is obtained from bovine brain cells as described in Hamel and Lin. Various amounts of inhibitor were preincubated for 15 minutes at 37° C. with purified tubulin. After the incubation period, the reaction was cooled and GTP was added to induce tubulin polymerization. Polymerization was then monitored in a Gilford spectrophotometer at 350 nm. The final reaction mixtures (0.25 ml) contained 1.5 mg/ml tubulin, 0.6 mg/ml microtubule-associated proteins (MAPs), 0.5 mM GTP, 0.5 mM MgCl2, 4% DMSO and 0.1 M 4-morpholineethanesulfonate buffer (MES, pH 6.4). […]

FADU = assay: Human cancer cell line studies, FADU; type: cell-based; conditions: Pharynx-sqam FADU
Experimental: (§1) The assay used is described in Monks et al. Briefly, the cell suspensions, diluted according to tho particular cell type and the expected target cell density (5,000-40,000 cells per well based on cell growth characteristics), were added by pipet (100 μl) to 96-well microtiter plates. Inoculates were allowed a preincubation time of 24-28 hours at 37° C. for stabilization. Incubation with the inhibitor compounds lasted for 48 hours in 5% CO2 atmosphere and 100% humidity. Determination of cell growth was done by in situ fixation of cells, followed by staining with a protein-binding dye, sulforhodamine B (SRB), which binds to the basic amino acids of cellular macromolecules. The solubilized stain was measured spectrophotometrically.

RPMI-7951 = assay: Human cancer cell line studies, RPMI-7951; type: cell-based; conditions: Melanoma RPMI-7951
Experimental: as §1, with “3-(3′,4′,5′-Trimethoxybenzoyl)-2-(4′-methoxyphenyl)-6-methoxybenzo[b]-thiophene was evaluated in terms of growth inhibitory activity against several human cancer cell lines, including ovarian CNS, renal, lung, colon and melanoma lines. The assay” for “The assay”

BXPC-3 = assay: Human cancer cell line studies, BXPC-3; type: cell-based; conditions: Pancreas adn BXPC-3
Experimental: as §1

DU-145 = assay: Human cancer cell line studies, DU-145; type: cell-based; conditions: Prostate DU-145
Experimental: as §1

NCI-H460 = assay: Growth inhibitory activity, human cancer cell line NCI-H460 (SRB); type: cell-based; conditions: Lung-NSC NCI-H460
Experimental: as §1

P388 leukemia cells = assay: Cytotoxic assay with P388 leukemia cells; type: cell-based, mouse
From the text: The tubulin polymerization compounds can also be tested for their ability to inhibit tumor cell growth.

U251 = assay: Human cancer cell line studies, U251; type: cell-based; conditions: CNS U251
Experimental: as §1, with “3-(3′,4′,5′-Trimethoxybenzoyl)-2-(4′-methoxyphenyl)-6-methoxybenzo[b]-thiophene was evaluated in terms of growth inhibitory activity against several human cancer cell lines, including ovarian CNS, renal, lung, colon and melanoma lines. The assay” for “The assay”

SK-N-SH = assay: Human cancer cell line studies, SK-N-SH; type: cell-based; conditions: Homo sapiens; Neuroblast SK-N-SH; read-out: GI50
Experimental: as §1

SW1736 = assay: Human cancer cell line studies, SW1736; type: cell-based; conditions: Homo sapiens, SW-1736; Thyroid ca SW1736; read-out: GI50
Experimental: as §1

[3] = P388 mouse leukemia, dosage required to inhibit 50% of cell growth, read-out: ED50 (the source's name)
[4] = Homo sapiens, U-251, read-out: GI50
[5] = P388 mouse leukemia, dosage required to inhibit 50% of cell growth
[6] = purified tubulin […], GTP-induced, 350 nm, final steady-state number for compounds other than 1A and 10A, read-out: IC50 for inhibition of tubulin polymerization
[7] = Mus musculus, P388, read-out: ED50

SMILES	GI50 (FADU; Homo sapiens, read-out: GI50) [µg/mL]	GI50 (RPMI-7951; Homo sapiens, read-out: GI50) [µg/mL]	GI50 (BXPC-3; Homo sapiens, read-out: GI50) [µg/mL]	GI50 (DU-145; Homo sapiens, read-out: GI50) [µg/mL]	GI50 (NCI-H460; Homo sapiens, read-out: GI50) [µg/mL]	IC50 (P388 leukemia cells; [3]) [µg/mL]	GI50 (U251; [4]) [µg/mL]	further results
COc1ccc(-c2sc3cc(OC)ccc3c2C(=O)c2cc(OC)c(OC)c(OC)c2)cc1 [Compound 1A, 3-(3′,4′,5′-trimethoxybenzoyl)-2-(4′-methoxyphenyl)-6-methoxybenzo[b]thiophene]								melting point: 131 to 133 °C
COc1ccc(/C=C\c2cc(OC)c(OC)c(OC)c2)cc1O [Combretastatin A-4, reference compound]								inhibition of the binding of [3H]colchicine to tubulin (tubulin [1]): total inhibition; IC50 (tubulin [2]; read-out: 50% inhibition of the maximum tubulin assembly rate, inhibition of rate rather than steady state): […]
COc1ccc(C(=O)c2c(-c3ccc(OC)cc3)sc3cc(OC)ccc23)cc1 [Compound 5A, 3-(4′-methoxybenzoyl)-2-(4′-methoxyphenyl)-6-methoxybenzo[b]thiophene]	> 10	> 10	8.9 (≈ 22 µM)	> 10	> 10	> 100	> 10	
COc1ccc(-c2sc3cc(OC)ccc3c2C(=O)CCc2cc(OC)c(OC)c(OC)c2)cc1 [Compound 8A, 3-[3′-(3′,4′,5′-trimethoxyphenyl)propionyl]-2-(4′-methoxyphenyl)-6-methoxybenzo[b]thiophene]								GI50 (FADU): 9.1 µg/mL (≈ 18.5 µM); GI50 (RPMI-7951): >10 µg/mL; GI50 (BXPC-3): >10 µg/mL; GI50 (DU-145): >10 µg/mL; GI50 (NCI-H460): 3.8 µg/mL (≈ 7.71 µM); ED50 (P388 leukemia cells; [5]): >10 µg/mL; GI50 (U251): 4.5 µg/mL (≈ 9.14 µM)
CCOc1ccc(-c2sc3cc(OCC)ccc3c2C(=O)c2cc(OCC)c(OCC)c(OCC)c2)cc1 [Compound 9A, 3-(3′,4′,5′-triethoxybenzoyl)-2-(4′-ethoxyphenyl)-6-ethoxybenzo[b]thiophene]	> 10	> 10	> 10	> 10	> 10	> 10	> 10	
COc1ccc(-c2sc3cc(OC)ccc3c2C(=O)c2ccc(OC)c(OC)c2)cc1 [Compound 4A, 3-(3′,4′-dimethoxybenzoyl)-2-(4′-methoxyphenyl)-6-methoxybenzo[b]thiophene]	4.7 (≈ 10.8 µM)		5.2 (≈ 12 µM)	> 10	4.6 (≈ 10.6 µM)	> 10		GI50 (SK-N-SH): 3.2 µg/mL (≈ 7.36 µM); GI50 (SW1736): > 10 µg/mL; IC50 (tubulin [2]; [6]): > 40 µM
COc1ccc(-c2sc3cc(OC)ccc3c2C(=O)Cc2ccccc2)cc1 [Compound 20A, 3-(phenylacetyl)-2-(4′-methoxyphenyl)-6-methoxybenzo[b]thiophene]	9.2 (≈ 23.7 µM)	> 10	> 10	> 10	> 10	> 10	> 10	
COc1ccc(/C=C\c2cc(OC)c(OC)c(OC)c2)cc1N=[N+]=[N-] [Compound 34E, (Z)-1-(3′azido-4′-methoxyphenyl)-2-(3″,4″,5″-trimethoxyphenyl)ethene]	0.0076 (≈ 0.0223 µM)		0.005 (≈ 0.0146 µM)	0.0091 (≈ 0.0267 µM)	0.0056 (≈ 0.0164 µM)			IC50 (P388 leukemia cells; [7]): 0.0384 µg/mL (≈ 0.112 µM); GI50 (SK-N-SH): 0.0033 µg/mL (≈ 0.00967 µM); GI50 (SW1736): 1.2 µg/mL (≈ 3.52 µM); IC50 (tubulin [2]; [6]): 1.3 µM
COc1ccc(-c2sc3cc(OC)ccc3c2C(=O)Cc2cc(OC)c(OC)c(OC)c2)cc1 [Compound 21A]								GI50 (FADU): 7.9 µg/mL (≈ 16.5 µM); GI50 (RPMI-7951): >10 µg/mL; GI50 (BXPC-3): 9.8 µg/mL (≈ 20.5 µM); GI50 (DU-145): >10 µg/mL; GI50 (NCI-H460): >10 µg/mL; ED50 (P388 leukemia cells; [5]): >10 µg/mL; GI50 (U251): >10 µg/mL
CCOc1cc(C(=O)c2c(-c3ccc(OC)cc3)sc3cc(OC)ccc23)cc(OCC)c1OCC [Compound 7A, 3-(3′,4′,5′-triethoxybenzoyl)-2-(4′-methoxyphenyl)-6-methoxybenzo[b]thiophene]	> 10	> 10	> 10	> 10	> 10	> 100	> 10	
CCOc1ccc(C(=O)c2c(-c3ccc(OC)cc3)sc3cc(OC)ccc23)cc1 [Compound 6A, 3-(4′-ethoxybenzoyl)-2-(4′-methoxyphenyl)-6-methoxybenzo[b]thiophene]	0.48 (≈ 1.15 µM)	3.2 (≈ 7.65 µM)	0.65 (≈ 1.55 µM)	3.9 (≈ 9.32 µM)	2.4 (≈ 5.73 µM)	> 100	0.43 (≈ 1.03 µM)	
COc1ccc(-c2sc3cc(OC)ccc3c2Oc2cc(OC)c(OC)c(OC)c2)cc1 [Compound 23B, 3-(3′,4′,5′-trimethoxyphenoxy)-2-(4′-methoxyphenyl)-6-methoxybenzo[b]thiophene]	0.098 (≈ 0.217 µM)		0.23 (≈ 0.508 µM)	0.42 (≈ 0.928 µM)	0.31 (≈ 0.685 µM)			IC50 (P388 leukemia cells; [7]): 3.09 µg/mL (≈ 6.83 µM); GI50 (SK-N-SH): 0.063 µg/mL (≈ 0.139 µM); GI50 (SW1736): 0.73 µg/mL (≈ 1.61 µM); IC50 (tubulin [2]; [6]): 1.4 µM
